# Measured values reported in ChEMBL document CHEMBL1133537, “Chiral derivatives of 2-cyclohexylideneperhydro-4,7-methanoindenes, a novel class of nonsteroidal androgen receptor ligand: synthesis, X-ray analysis, and biological activity” (J Med Chem, 2000).
# How the values were obtained:
# [1] = Eudismic ratio which is the ratio of potency of eutomer and distomer.
# Androgen receptor [2] = target: T1, Androgen receptor (Rattus norvegicus, UniProt P15207)
# T1 sequence (P15207 whole entry): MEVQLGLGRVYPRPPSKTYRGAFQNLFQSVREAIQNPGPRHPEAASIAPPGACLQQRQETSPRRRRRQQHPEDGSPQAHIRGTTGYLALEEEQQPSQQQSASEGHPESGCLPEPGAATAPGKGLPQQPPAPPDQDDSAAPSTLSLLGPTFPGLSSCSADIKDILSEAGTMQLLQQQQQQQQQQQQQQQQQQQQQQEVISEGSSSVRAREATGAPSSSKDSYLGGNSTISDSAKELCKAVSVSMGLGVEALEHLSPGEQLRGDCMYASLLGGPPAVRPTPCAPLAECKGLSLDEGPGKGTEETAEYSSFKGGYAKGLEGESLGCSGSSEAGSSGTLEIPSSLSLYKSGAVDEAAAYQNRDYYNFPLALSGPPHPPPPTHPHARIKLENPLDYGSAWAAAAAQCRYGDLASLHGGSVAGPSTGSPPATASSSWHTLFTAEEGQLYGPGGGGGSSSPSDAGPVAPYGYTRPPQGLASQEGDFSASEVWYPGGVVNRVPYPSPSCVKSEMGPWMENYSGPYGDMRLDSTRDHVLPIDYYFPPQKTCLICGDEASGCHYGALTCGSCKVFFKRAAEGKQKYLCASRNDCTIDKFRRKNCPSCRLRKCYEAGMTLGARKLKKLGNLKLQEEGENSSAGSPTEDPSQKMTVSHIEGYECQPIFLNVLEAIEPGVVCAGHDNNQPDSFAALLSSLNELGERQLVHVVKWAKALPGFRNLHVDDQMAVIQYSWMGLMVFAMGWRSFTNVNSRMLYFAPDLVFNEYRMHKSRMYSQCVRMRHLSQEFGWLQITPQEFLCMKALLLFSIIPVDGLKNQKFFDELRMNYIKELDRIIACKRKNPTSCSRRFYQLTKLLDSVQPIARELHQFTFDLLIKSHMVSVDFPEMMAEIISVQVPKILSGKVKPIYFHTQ
# Description: Ability to inhibit binding of [3H]R-1881 to rat ventral prostate cytosolic androgen receptor was measured in a radioligand binding assay.
# Androgen receptor [3] = target: T1, Androgen receptor; assay: […] binding affinity fot cytosolic androgen receptor
SMILES,Ratio [1],IC50 (Androgen receptor [2]) [µM],Ki (Androgen receptor [3]) [µM]
O=C1CCC(=C2C[C@@H]3[C@H](C2)[C@@H]2C[C@H]3[C@@H](O)C2)CC1,2.7,3.9,
C#C[C@]1(O)CC[C@H]2[C@@H]3CCC4Cc5nn(S(C)(=O)=O)cc5C[C@]4(C)[C@H]3CC[C@@]21C (stereo partly drawn),,,2.2
O=C1CCC(=C2C[C@@H]3[C@H]4CC(=O)[C@H](C4)[C@@H]3C2)CC1,2.3,33,
O=C1CCC(=C2C[C@@H]3[C@H](C2)[C@@H]2C[C@H]3[C@H](O)C2)CC1,15.5,35.9,0.45
O=C1CCC(=C2C[C@@H]3[C@@H]4C[C@H]([C@@H]3C2)[C@@](O)(C(F)(F)F)C4)CC1,2.6,41.2,
O=C1CCC(=C2C[C@H]3[C@@H](C2)[C@H]2C[C@@H]3[C@H](O)C2)CC1,,10.4,

# Second part, led by results:
Ratio [1],IC50 (Androgen receptor [2]) [µM],SMILES,Ki (Androgen receptor [3]) [µM]
,62.5,C=C[C@@]1(O)C[C@H]2C[C@@H]1[C@@H]1CC(=C3CCC(=O)CC3)C[C@H]21,
,27.4,C[C@@]1(O)C[C@H]2C[C@@H]1[C@@H]1CC(=C3CCC(=O)CC3)C[C@H]21,
,14.2,O=C1CCC(=C2C[C@H]3[C@@H]4CC(=O)[C@@H](C4)[C@H]3C2)CC1,
4.2,57,C#C[C@@]1(O)C[C@H]2C[C@@H]1[C@@H]1CC(=C3CCC(=O)CC3)C[C@H]21,
,15.6,O=C1CCC(=C2C[C@H]3[C@H]4C[C@@H]([C@H]3C2)[C@](O)(C(F)(F)F)C4)CC1,
,13.5,C#C[C@]1(O)C[C@@H]2C[C@H]1[C@H]1CC(=C3CCC(=O)CC3)C[C@@H]21,
